According to paper PMC12040169 (PLOS Biology, 2025):

Assay: in vitro
Conditions: human, hela cells

Compound	viability at 28.5 h, 10 µM [%]
CNC(=O)Oc1ccc(C2(C)SCCS2)cc1 [CBK023078]	98.9

Same assay, conditions: human, hela cells, % viability

Compound	viability at 28.5 h, 10 µM [%]
CC(=O)Nc1cccc(-c2cncc(NCc3cccc(Cl)c3)n2)c1 [CBK065236]	97.2
CCC1CCCCN1C(=O)c1ccc(-c2ccccc2)s1 (stereo not shown) [CBK074215]	96.5
O=C(O)CSc1nc2c(-c3ccco3)c3c(nc2o1)CCCC3 [CBK269266]	104
CCC(=O)N1CCN(CCCC(=O)c2ccc(F)cc2)CC1 [CBK025017C]	108
CCN1CCCC1CNC(=O)c1cc([N+](=O)[O-])c(N(C)C)cc1OC (stereo not shown) [CBK262595]	95.8
COc1cc2c(cc1OC)C1c3ccccc3N(Cc3ccccc3)C(=O)N1CC2 (stereo not shown) [CBK286192]	86.8
O=C(O)CC1CCN(c2ccc(C(F)(F)F)cn2)CC1 [CBK286850]	90.4
Cc1ccc(OCc2occc2C(=O)N2CCC(O)(CN(C)C)C2)cc1 (stereo not shown) [CBK307341]	95.6
O=c1cc(Nc2ccc3c(c2)OCO3)[nH]c(=O)n1-c1ccc(Cl)cc1 [CBK287507]	86.6
Cc1nnc(CN(C)C2CCN(CCCc3ccccc3)C2)n1C (stereo not shown) [CBK304000]	115
O=C(Nc1sc2c(c1C(=O)NCc1cccnc1)CCCC2)c1sc2ccccc2c1Cl [CBK266334]	95.9
O=S(=O)(c1ccc(F)c(F)c1F)n1ccc2c(N3CCNCC3)nccc21 [CBK059066C]	106
COc1ccc(C2CCN(Cc3ccncc3)CC2)cc1 [CBK283563]	95.8
N#Cc1cccc(C(=O)N2CCC(NC(=O)c3ccc(F)cc3)CC2)c1 [CBK305717]	111
COc1ccc(F)c(CN(CC2CCNCC2)C(=O)Nc2c(F)cccc2F)c1 [CBK049804]	110
CCn1c(CN[C@@H]2CCC[C@H]2Cc2cc(C)no2)cnc1SC [CBK282965]	96.6
c1csc(CNCCCN2CCOCC2)c1 [CBK278305C]	91.1
CC1(CNC(=O)c2ccc(N3CCCCC3)cc2)COC1 [CBK281746]	105
O=C(CN1CCN(CCN2C(=O)c3cccc4cccc(c34)C2=O)CC1)c1ccc(Cl)cc1 [CBK265363]	78.1
CCN(CC)C(=O)NC(C)c1cccc(S(=O)(=O)NC)c1 (stereo not shown) [CBK305134]	94.4
CC(C)c1ccc(S(=O)(=O)Nc2ccc(O)c(Sc3nc[nH]n3)c2)cc1 [CBK266861]	90.8
c1ccc(CCn2c3ccccc3c3nnc(SCc4ccc5nonc5c4)nc32)cc1 [CBK267516]	97.4

Compound	viability at 28.5 h, 10 µM [%]
COc1ccc2c(c1)c(=O)oc1c(CN3CCCC3)c(O)ccc12 [CBK266814]	95.3
CCCOc1ccc(S(=O)(=O)NCc2ccc3c(c2)OCO3)c2ccccc12 [CBK269059]	94.3
COC(=O)c1ncn(CC(=O)N2CCCCCC2)n1 [CBK305184]	98.9
C=CCn1c(SCc2nnc(-c3ccccc3)o2)nnc1C(O)c1ccccc1 (stereo not shown) [CBK267368]	110
CC(C)(C)C(=O)N1CCC(c2nc3ccccc3cc2N)CC1 [CBK285039]	101
Nc1nc(=O)c2cnc3ccc(F)cc3c2s1 [CBK291195]	111
Cc1cccc(Nc2nc(N/N=C/c3c[nH]nc3-c3ccccc3)nc(N3CCC(C)CC3)n2)c1C [CBK262498]	89.3
Cc1c(C(=O)N2CCCC(c3cnccn3)C2)oc2c(F)cccc12 (stereo not shown) [CBK285302]	96.3
O=C(Nc1cccc2[nH]ccc12)c1ccc(Cl)cc1 [CBK159632]	91.7
Cc1nn(C)c(Cl)c1S(=O)(=O)NC1(c2ccc(F)cc2)CC1 [CBK282800]	97.5
COc1cc(/C=C2\NC(=S)NC2=O)c(Cl)cc1O [CBK102003]	65.5
Cc1nc2[nH]c(=O)nc(N)c2nc1C [CBK025658]	83.3
O=C(Nc1ccc2c(c1)OCO2)c1ccc(-c2ccccc2)nc1NCCc1ccccn1 [CBK076574]	102
COc1ccc(C(=O)Nc2ccccc2)cc1S(=O)(=O)Nc1cccnc1 [CBK266771]	94.4
CCc1nc2ccc(C(=O)NCCN3CCOCC3)cn2c1N(C)Cc1cc2ccccc2s1 [CBK146561]	101
CCc1c(C)nc2ccc(NC(C)=O)cc2c1SCCC(=O)O [CBK159465T]	98.7
COc1ccc(-c2nc(NC(=O)C3CC(=O)N(C)C3c3cccnc3)cnc2-c2cccc(C)c2)cc1 (stereo not shown) [CBK036692]	101
COc1ccc(-n2c(C)c([N+](=O)[O-])c3ccc(O)c(CNCCCO)c32)cc1 [CBK263504C]	88.4
c1ccc(OCCOc2nccnc2-c2ccsc2)cc1 [CBK106773]	103
Cc1ccc(S(N)(=O)=O)cc1C(=O)OCC(=O)c1ccccc1 [CBK264588]	113
CCc1nnc(NS(=O)(=O)c2ccc(NC(=O)c3ccc([N+](=O)[O-])cc3)cc2)s1 [CBK045483]	95.4
COc1ccc(S(=O)(=O)N2CCOCC2)cc1C(=O)Nc1ccc2c(c1)OCO2 [CBK265548]	102

Compound	viability at 28.5 h, 10 µM [%]
C[C@H]1CN([C@H]2C[C@@H](O)[C@@H](CO)O2)C(=O)NC1=O [CBK201206]	96.9
Cc1cccc2c3c([nH]c12)C1(CCCN(Cc2ccc(F)cc2Cl)C1)NCC3 (stereo not shown) [CBK039339]	90
Cc1nn(CC(=O)N2CCCC2)c(=O)c2cc3sccc3n12 [CBK284024]	95.2
COc1ccc2oc(-c3ccc(NC(=O)c4cccc5ccccc45)cc3)nc2c1 [CBK267610]	110
O=C(c1ccco1)N1CCN(S(=O)(=O)c2ccc(Cl)cc2)CC1 [CBK068411]	104
Cc1ccc(Nc2nc(Cn3nc(C(=O)O)c4ccccc4c3=O)cs2)cc1 [CBK296989]	86.7
COc1ccc(-c2cnc(N)c(N3CCC[C@@H]3CO)n2)c(OC)c1OC [CBK063505]	98.5
COc1cc(C#N)ccc1OCc1cc(C)on1 [CBK002581]	86.1
O=C(Nc1ccc2oc(-c3cccnc3)nc2c1)c1cccc(OCc2ccccc2)c1 [CBK263420]	94.4
CC(=O)NCc1cccc(-c2cc(C(=O)Nc3ccc4c(c3)OCCO4)cnc2-c2cccnc2)c1 [CBK160658]	88.6
COc1ccc2c(c1OC)C(=O)N(c1cccc([N+](=O)[O-])c1)C2 [CBK115318]	99.5
O=C(Nc1ccc(OCc2ccoc2)cc1C(=O)O)c1ccc(Cl)cc1Cl [CBK003768D]	87.5
COc1ccccc1CNC(=O)c1ccc(=O)[nH]c1 [CBK288133]	106
Cc1ccc(C)c(Sc2ccc(S(=O)(=O)Nc3ccc(C(=O)O)cc3)cc2)c1 [CBK297529]	109
Cc1cccnc1NC(=O)c1cc(O)nc2ccccc12 [CBK300499]	91.6
O=C(O)c1cc(C(=O)O)cc(N2C(=O)c3ccc(S(=O)(=O)c4ccc5c(c4)C(=O)N(c4cc(C(=O)O)cc(C(=O)O)c4)C5=O)cc3C2=O)c1 [CBK261336]	100
Oc1ccc(Oc2ccc(Oc3ccc(O)cc3)cc2)cc1 [CBK033968]	107
O=C(O)c1ccc(NC(=O)c2cn(-c3ccccc3)nc2-c2cc3ccccc3o2)cc1 [CBK266587C]	106
O=C1OCC(O)=C1C(c1ccccc1)C1CC1 (stereo not shown) [CBK010731]	91
CC(=O)Nc1nonc1OCCOc1nonc1NC(C)=O [CBK020227]	113
CS(=O)(=O)Nc1nccnc1OC1CCN(CCCO)CC1 [CBK084275]	90.9
O=C(Cc1csc(-c2ccsc2)n1)Nc1nc2c(s1)CCC2 [CBK297935]	96.8

Compound	viability at 28.5 h, 10 µM [%]
CC(NC(=O)N(Cc1cccc2ccccc12)C1CCC(N)CC1)c1cccc2ccccc12 (stereo not shown) [CBK000482C]	67.8
Fc1ccc(CN2CCC3(C2)c2[nH]c4ccccc4c2CCN3Cc2ccc(F)cc2)cc1 (stereo not shown) [CBK059467]	85.8
CC(=O)Nc1ccc(-c2cccc(COC3CCN(C(=O)c4ccc(OC(C)C)cc4)CC3)c2)cc1 [CBK149485]	100
Cc1csc(CNCc2c(C(C)C)nn(C)c2N(C)C)n1 [CBK305089]	83.7
O=C1CCCN1CCCNc1nccnc1-c1cccnc1 [CBK089246]	110
Clc1cncc(OCCCCOc2ccccc2)n1 [CBK176018]	108
CCOCCc1nsc(NS(=O)(=O)c2cccc(Cl)c2C)n1 [CBK034245]	102
CN(CC(=O)Nc1cc2ccccc2c(N2CCNCC2)n1)C(=O)c1ccccc1 [CBK028421T]	93
O=C(Nc1c(F)cc(F)cc1OC1CCNCC1)c1coc2c1C(=O)CCC2 [CBK050331T]	93.9
O=C(Oc1ccc2c(c1)C1C=CCC1C(C(=O)O)N2)c1ccc(Cl)cc1Cl (stereo not shown) [CBK265285]	94.2
Cc1ccc2cc(CNc3ccc4c(c3)-c3ccccc3S(=O)(=O)N4)c(=O)[nH]c2c1 [CBK286163]	70.6
Cn1nccc1C(=O)NC1CCN(CC2(c3ccccc3)CC2)CC1 [CBK285373]	106
O=C(O)CCCNc1ncnc2c1oc1ccccc12 [CBK287573]	101
O=C(Nc1ccc2[nH]ccc2c1)c1c(F)ccc(Cl)c1F [CBK159673]	78.6
O=C(NC1CCN(CCOc2ccccc2F)CC1)c1cccs1 [CBK305737]	96.8
CC(=O)Nc1nn(Cc2cc3c(cc2Cl)OCO3)c2ccccc12 [CBK048251]	96.5
NS(=O)(=O)c1ccc(CCNC(=O)c2ccc([N+](=O)[O-])cc2)cc1 [CBK263773]	104
O=C(Nc1nn(Cc2c(F)cccc2Cl)cc1Cl)c1cccnc1 [CBK268154]	79.1
Cc1cnc(CNC(=O)N2CCN(Cc3ccccc3)CC2)cn1 [CBK155627]	99.3
O=C(NCC1(CCO)CCOC1)c1c[nH]nc1-c1cc2ccccc2o1 (stereo not shown) [CBK305492]	103

Same assay, conditions: human, hela cells, % viability, bulk resorufin, single well

Compound	viability at 28.5 h, 10 µM [%]
COc1ccc(-c2ccc3c(c2)COC2(CCNCC2)O3)c(OC)c1 [CBK061344]	91.1
